US20110046106A1, “ARYL SULFONAMIDES AS EFFECTIVE ANALGESICS” (BOEHRINGER INGELHEIM INTERNATIONAL GMBH, priority 2008, published 2011)

Biological target: T1, rat BK1 receptor (Rattus norvegicus, UniProt P97583)
T1 construct: expressed in transfected cells
T1 sequence (P97583 1-337): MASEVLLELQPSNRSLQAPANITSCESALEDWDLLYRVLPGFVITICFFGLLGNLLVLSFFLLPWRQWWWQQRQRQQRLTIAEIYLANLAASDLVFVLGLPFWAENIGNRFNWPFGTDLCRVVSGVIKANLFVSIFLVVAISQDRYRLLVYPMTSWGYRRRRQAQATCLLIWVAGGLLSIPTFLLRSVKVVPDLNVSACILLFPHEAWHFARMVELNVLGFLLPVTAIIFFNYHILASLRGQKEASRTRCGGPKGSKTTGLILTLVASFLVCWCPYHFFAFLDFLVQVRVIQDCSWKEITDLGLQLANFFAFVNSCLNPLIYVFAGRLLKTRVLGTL
Test: Bradykinin BK1-receptor binding (radioligand displacement, membranes of CHO cells)
Settings: membranes of CHO cells stably expressing the rat BK1 receptor; 1 to 5 nM [3H]-kallidin (DesArg10, Leu9); 120 minutes at room temperature
Description: Description of the Method of Bradykinin BK1-Receptor Binding
CHO cells stably expressing the rat BK1 receptor are cultivated in Dulbecco's modified medium. The medium from confluent cultures is removed and the cells are washed with PBS buffer, scraped off and isolated by centrifugation. The cells are then homogenized in suspension and the homogenate is centrifuged and resuspended. The protein content is determined and the membrane preparation obtained in this manner is then frozen at −80° C.
After thawing, 200 μl of the homogenate (50 to 100 μg of proteins/assay) are incubated at room temperature with 1 to 5 nM of kallidin (DesArg10, Leu9), [3,4-prolyl-3,43H(N)] and increasing concentrations of the test substance in a total volume of 250 μl for 120 minutes. The incubation is terminated by rapid filtration through GF/B glass fibre filters which had been pretreated with polyethyleneimine (0.3%). The protein-bound radio-activity is measured in a TopCount NXT (Perkin Elmer/Packard). Non-specific binding is defined as radioactivity bound in the presence of 1.0 μM Lys-Des-Arg9-bradykinin. The concentration/binding curve is analysed using a computer-assisted nonlinear curve fitting. The Ki which corresponds to the test substance is determined using the data obtained in this manner.
It is pointed out that the compounds were selected for their different structural elements and not in order to emphasise specific compounds: […]

`COc1cc(C)c(S(=O)(=O)N(C)CCOCC(=O)N(C)[C@@H]2CCN(C3CCN(C4CCOCC4)CC3)C2)c(C)c1` [Example 3] gave a Ki of 24.7 nM.
In the case of `COc1cc(C)c(S(=O)(=O)N(C)CCOCC(=O)N(C)C[C@@H]2CCN(C(=O)CCN3CCCC3)C2)c(C)c1` [Example 6], the Ki is reported as 181 nM.
Compound `COc1cc(C)c(S(=O)(=O)N(C)CCOCC(=O)N(C)[C@@H]2CCN(C3CCN(C4CC4)CC3)C2)c(C)c1` [Example 8] has a Ki of 23.5 nM.
